The values that follow come from ChEMBL document CHEMBL1153273, “4-(Alkylthio)- and 4-(arylthio)-benzonitrile derivatives as androgen receptor antagonists for the topical suppression of sebum production” (Bioorg Med Chem Lett, 2009).

The IC50 is the point on the concentration scale where inhibition reaches its midpoint.

In the first assay the test system is Syrian golden hamster. Description: Reduction of wax ester production in Syrian hamster ear topically dosed at 1% twice daily for 5 days per week for two weeks measured after 18 to 24 hrs of final dose by HPLC lipid analysis. It is filed as functional, Mesocricetus auratus. More on the design: scale not given: the % may be the effect or the level left.
In the case of `N#Cc1ccc(SCC2CC2)cc1C(F)(F)F`, the Activity is given as 43%.

The compound `CC(C)Sc1ccc(C#N)c(C(F)(F)F)c1` came in with an Activity of 46%.

`COc1cc(SC(C)C)ccc1C#N` registered an Activity of 59%.

The compound `CC1(C)C(=O)N(c2ccc(C#N)c(C(F)(F)F)c2)C(=O)N1CCCCO` [RU-58841] returned an Activity of 95%.

In turn, `N#Cc1ccc(Sc2ccccc2F)cc1C(F)(F)F` registered an Activity of 64%.

As for `COc1cc(Sc2c(C)cccc2C)ccc1C#N`, the Activity turned out to be 66%.

For a further assay, the system named is Syrian golden hamster. Description: Reduction of cholesterol ester production in Syrian hamster ear topically dosed at 1% twice daily for 5 days per week for two weeks measured after 18 to 24 hrs of final dose by HPLC lipid analysis. It is filed as functional, Mesocricetus auratus. More on the design: scale not given: the % may be the effect or the level left.
Compound `N#Cc1ccc(SCC2CC2)cc1C(F)(F)F` returned an Activity of 35%.

Compound `CC(C)Sc1ccc(C#N)c(C(F)(F)F)c1` registered an Activity of 40%.

In turn, `COc1cc(SC(C)C)ccc1C#N` gave an Activity of 46%.

In turn, `N#Cc1ccc(Sc2ccccc2F)cc1C(F)(F)F` had an Activity of 50%.

For the compound `COc1cc(Sc2c(C)cccc2C)ccc1C#N`, the Activity is reported as 45%.

A further assay concerns the target T1, Androgen receptor (Homo sapiens, UniProt P10275).
T1 sequence (P10275 whole entry): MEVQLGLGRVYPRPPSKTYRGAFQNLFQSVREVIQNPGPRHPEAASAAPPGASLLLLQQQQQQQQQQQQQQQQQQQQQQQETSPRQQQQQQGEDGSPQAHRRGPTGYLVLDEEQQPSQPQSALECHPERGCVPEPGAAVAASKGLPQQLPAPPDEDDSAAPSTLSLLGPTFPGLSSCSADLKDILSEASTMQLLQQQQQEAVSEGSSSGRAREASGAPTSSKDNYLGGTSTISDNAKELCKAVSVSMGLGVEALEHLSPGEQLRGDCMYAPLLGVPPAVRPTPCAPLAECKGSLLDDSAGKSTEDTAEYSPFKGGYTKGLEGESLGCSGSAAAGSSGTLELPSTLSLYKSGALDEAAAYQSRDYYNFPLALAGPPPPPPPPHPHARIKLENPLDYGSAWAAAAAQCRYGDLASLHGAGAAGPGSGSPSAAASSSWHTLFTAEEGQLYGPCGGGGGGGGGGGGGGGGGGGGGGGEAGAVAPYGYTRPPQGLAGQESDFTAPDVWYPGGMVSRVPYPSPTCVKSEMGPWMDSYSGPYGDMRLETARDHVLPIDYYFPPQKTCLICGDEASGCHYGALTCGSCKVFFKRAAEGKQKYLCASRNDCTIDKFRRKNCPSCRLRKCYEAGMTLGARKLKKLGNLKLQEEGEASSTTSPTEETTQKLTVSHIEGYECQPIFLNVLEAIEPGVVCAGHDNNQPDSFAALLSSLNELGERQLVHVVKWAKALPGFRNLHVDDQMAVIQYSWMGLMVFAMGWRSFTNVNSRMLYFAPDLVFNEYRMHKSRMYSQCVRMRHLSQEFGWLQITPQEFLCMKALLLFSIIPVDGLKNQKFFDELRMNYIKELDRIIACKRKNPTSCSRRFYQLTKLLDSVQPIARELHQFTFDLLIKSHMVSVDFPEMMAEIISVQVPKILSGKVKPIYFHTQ
Test: not given
Turning to `COc1cc(Sc2ccccc2OC)ccc1C#N`, inhibition was half-maximal at 35 nM (IC50).

With `COc1cc(Oc2ccccc2C)ccc1C#N`, inhibition was half-maximal at 81 nM (IC50).

The compound `Cc1ccccc1Sc1ccc(C#N)c(C(F)(F)F)c1` gave a concentration for half-maximal inhibition (IC50) of 123 nM.

For `CCCSc1ccc(C#N)c(OC)c1`, the IC50 was above 1000 nM.

`COc1cc(SCC2CC2)ccc1C#N`: the midpoint of inhibition, the IC50, lay at 55 nM.

Take `Cc1ccccc1Sc1ccc(C#N)cc1Cl`: half-maximal inhibition (IC50) required 78 nM.

As to `CCCCSc1ccc(C#N)c(OC)c1`, the IC50 was determined as 66 nM.

On to `N#Cc1ccc(SCC2CCC2)cc1C(F)(F)F`, for which the concentration for half-maximal inhibition (IC50) amounted to 702 nM.

The compound `N#Cc1ccc(SCC2CC2)cc1C(F)(F)F` came in with an IC50 of 133 nM.

In turn, `CC(C)Sc1ccc(C#N)c(C(F)(F)F)c1` returned an IC50 of 89 nM.

Turning to `COc1cc(SC(C)C)ccc1C#N`, 10 nM corresponded to half-maximal inhibition (IC50).

For `COc1cc(C#N)ccc1Oc1ccccc1C`, the IC50 was determined as 48 nM.

`COc1cc(Sc2c(C)cc(C)cc2C)ccc1C#N`: the IC50 stood at 69 nM.

Regarding `COc1cc(Oc2cccc(C)c2)ccc1C#N`, the IC50 turned out to be 197 nM.

`COc1ccccc1Sc1ccc(C#N)c(C(F)(F)F)c1` yielded an IC50 of 37 nM.

In turn, `N#Cc1ccc(Sc2ccccc2F)cc1C(F)(F)F` showed an IC50 of 54 nM.

For the compound `COc1cc(Sc2c(C)cccc2C)ccc1C#N`, the midpoint of inhibition, the IC50, lay at 30 nM.

The compound `N#Cc1ccc(SC2CCC2)cc1C(F)(F)F` showed an IC50 of 167 nM.

The compound `COc1cc(Oc2ccc(C)cc2)ccc1C#N` registered an IC50 of 209 nM.

`CCCCSc1ccc(C#N)c(C(F)(F)F)c1` displayed an IC50 of 838 nM.

Consider `CCCSc1ccc(C#N)c(C(F)(F)F)c1`, for which the IC50 is 11 nM.

The next assay deals with T1, Androgen receptor. Description: biochemical.
Description: Displacement of [3H]DHT from human cloned androgen receptor expressed in Sf9 cells
Consider `COc1cc(Sc2ccccc2OC)ccc1C#N`, for which the IC50 is 20 nM.

Turning to `COc1cc(C#N)ccc1Oc1cccc(C)c1`, the IC50 stood at 353 nM.

On to `COc1cc(Oc2ccccc2C)ccc1C#N`, for which the midpoint of inhibition, the IC50, lay at 24 nM.

`Cc1ccccc1Sc1ccc(C#N)c(C(F)(F)F)c1` had an IC50 of 225 nM.

Consider `CCCSc1ccc(C#N)c(OC)c1`, for which the 50% inhibitory concentration (IC50) was found to be 40 nM.

In the case of `COc1cc(SCC2CC2)ccc1C#N`, half-maximal inhibition (IC50) was put at 169 nM.

For the compound `Cc1ccccc1Sc1ccc(C#N)cc1Cl`, it took 43 nM to reach half-maximal inhibition (IC50).

Take `CCCCSc1ccc(C#N)c(OC)c1`: 84 nM corresponded to half-maximal inhibition (IC50).

For `N#Cc1ccc(SCC2CCC2)cc1C(F)(F)F`, half-maximal inhibition (IC50) was put at 63 nM.

Take `N#Cc1ccc(SCC2CC2)cc1C(F)(F)F`: the IC50 stood at 35 nM.

Consider `COc1cc(C#N)ccc1Oc1ccc(C)cc1`, for which the IC50 is 5210 nM.

In the case of `CC(C)CCSc1ccc(C#N)c(C(F)(F)F)c1`, it took 519 nM to reach half-maximal inhibition (IC50).

`COc1cc(SCC2CCC2)ccc1C#N` returned an IC50 of 441 nM.

Compound `Cc1cccc(C)c1Sc1ccc(C#N)c(C(F)(F)F)c1` yielded an IC50 of 411 nM.

On to `CC(C)Sc1ccc(C#N)c(C(F)(F)F)c1`, for which the IC50 worked out at 20 nM.

In turn, `Cc1cc(C)c(Sc2ccc(C#N)c(C(F)(F)F)c2)c(C)c1` had an IC50 of 1340 nM.

With `COc1cc(SC(C)C)ccc1C#N`, the midpoint of inhibition, the IC50, lay at 29 nM.

With `CC(C)(C)Sc1ccc(C#N)c(C(F)(F)F)c1`, the IC50 turned out to be 315 nM.

`COc1cc(C#N)ccc1Oc1ccccc1C`: half-maximal inhibition (IC50) was put at 115 nM.

`COc1cc(Sc2c(C)cc(C)cc2C)ccc1C#N` came in with an IC50 of 39 nM.

Consider `COc1cc(Oc2cccc(C)c2)ccc1C#N`, for which half-maximal inhibition (IC50) was put at 57 nM.

In turn, `COc1cc(SCCC(C)C)ccc1C#N` had a concentration for half-maximal inhibition (IC50) of 1730 nM.

For `COc1ccccc1Sc1ccc(C#N)c(C(F)(F)F)c1`, the IC50 came out at 56 nM.

In turn, `Cc1ccccc1[S+]([O-])c1ccc(C#N)cc1Cl` (configuration not stated) registered an IC50 above 10000 nM.

Regarding `N#Cc1ccc(Sc2ccccc2F)cc1C(F)(F)F`, 184 nM corresponded to half-maximal inhibition (IC50).

In turn, `COc1cc(Sc2c(C)cccc2C)ccc1C#N` returned a concentration for half-maximal inhibition (IC50) of 43 nM.

With `N#Cc1ccc(SC2CCC2)cc1C(F)(F)F`, the half-maximal inhibitory concentration (IC50) was 194 nM.

Compound `COc1cc(Oc2ccc(C)cc2)ccc1C#N` had an IC50 of 200 nM.

Take `CCCCSc1ccc(C#N)c(C(F)(F)F)c1`: half-maximal inhibition (IC50) was put at 49 nM.

In the case of `CCCSc1ccc(C#N)c(C(F)(F)F)c1`, it took 23 nM to reach half-maximal inhibition (IC50).
